Test results from patent publication US8710089B2, “Triazole derivatives as ghrelin analogue ligands of growth hormone secretagogue receptors” (Zentaris GmbH, priority 2005, dated 2014).

Tests used:
[1] = tested on: young-adult male Sprague-Dawley rats; experiment: Feeding behavior (food intake) of young-adult male rats; format: in vivo, rat (Sprague-Dawley)
Protocol: V) Assaying the Feeding Behavior (Food Intake) of Young-Adult Male Rats
The impact of compounds of the invention being GHS receptor analogue ligands on the feeding behaviour, i.e. food intake, of young-adult male rats was assayed.
In principle, assaying the feeding behavior (food intake) of young-adult male rats was performed according to Torsello et al. (Eur. J. Pharmacol. 1998, 360: 123-129).
For the assay, young-adult male Sprague-Dawley rats (Charles River, Calco, Italy), weighing 200-250 g, were used.
Rats had 1 week of acclimation in individual home cages, and animal room conditions (22±2° C., 65% humidity, artificial light from 08.00 to 20.00 h). The following week, they were daily trained to mimic the experimental procedure. Rats maintained free access to dry pellets and tap water throughout the whole experimental period. At the end of training, rats were administered (around 10.00-11.00 a.m.) subcutaneously with the compounds to be tested (160 μg/kg body weight) and/or hexarelin (80 μg/kg body weight) and/or solvent [DMSO (0.4% of total volume), distilled water (4% of total volume), brought to the final volume with physiological saline].
Hexarelin was used to study the effects of the compounds to be tested on stimulated feeding behavior. Immediately after the injections, the animals were returned to their home cages, which contained a known amount of standard rat chow and ad libitum water. Every hour for the following 6 hours, the remaining food was carefully collected and weighed to the nearest 0.1 g. Food intake was normalized for the body weight of the rats and expressed as grams of food eaten per 100 g body weight of rats.
In the following table 4 results obtained for selected compounds of the invention are presented.

human GHS-R 1a = biological target: T1, human GHS-R 1a (Homo sapiens, UniProt Q92847); experiment: GHS-R 1a receptor-ligand binding assay (membrane preparations from transfected LLC PK-1 cells); conditions: displacement of 125I-His9-ghrelin (60 pM); membranes of LLC PK-1 cells transfected with human GHS-R 1a; mean of at least two independent experiments in triplicates
T1 construct: expressed in transfected cells; host or cells: LLC PK-1 porcine renal epithelial cells (ECACC No. 86121112), isolated plasma membranes
Summary of the method: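 Membranes from LLC PK-1 cells expressing human GHS-R 1a incubated 60 min at 25 °C in 50 mM Tris pH 7.3, 5 mM MgCl2, 2.5 mM EDTA, bacitracin with 60 pM 125I-ghrelin and competitor; nonspecific binding with 10^-6 M ghrelin; filtration read-out.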

[2] = tested on: GH concentration in the plasma of male rat pups; experiment: In vivo GH concentration in the plasma of male rat pups; parameters: species or system rat (Sprague-Dawley); conditions: rat pup plasma, killed 15 min later
Protocol: IV) Assaying In Vivo GH Concentration in the Plasma of Male Rat Pups
GH plasma concentrations of male rat pubs were assayed to characterize the modulation effect (antagonistic or agonistic) of the compounds of the invention being GHS receptor analogue ligands.
In principle, assaying in vivo GH concentration in rat plasma was performed according to Torsello et al. (Eur. J. Pharmacol. 1998, 360: 123-129).
Male Sprague-Dawley rat pups (Charles River, Calco, Italy) were separated on postnatal day seven from their mothers and randomly redistributed to the dams, so that each one nurtured ten to twelve pups. On postnatal day ten, the pups were again separated from their mothers.
The compounds to be tested were dissolved in solvent [DMSO (0.4% of total volume), distilled water (4% of total volume), brought to the final volume with physiological saline].
One hour after separation from their mothers, the pups were given isovolumetric amounts of the compounds to be tested (160 μg/kg body weight s.c.) at time −10 min and then administered with hexarelin (80 μg/kg body weight s.c.) or solvent at time 0 min before being killed 15 min later by decapitation. Trunk blood was collected, immediately centrifuged and plasma samples were stored at −20° C. until assayed for the determination of GH concentrations.
Plasma GH concentrations were measured using a rat growth hormone enzyme immunoassay kit (SPIbio, France, cat. no. 589601) according to the manufacturer's instructions. Values are expressed in terms of NIDDK rat-GH-RP2 standard (potency 2 IU/mg) as ng/mL of plasma
The limit of detection calculated as the concentration producing 15% displacement of initial tracer was 0.5 ng/ml; intra-assay and inter-assay coefficient of variation are 4% (n=24) and 14% (n=9).
In the following table 3 results obtained for selected compounds of the invention are presented.

[3] = biological target: T2, Motilin-Receptor 1a (MTL-R1a) (Homo sapiens, UniProt O43193); experiment: Motilin receptor-ligand binding assay (human recombinant HEK-293 cells); conditions: 0.1 nM [125I] Motilin, read-out: MTL-R 1a IC50
T2 construct: expressed in transfected cells; host or cells: HEK-293 cells
Protocol: VI) Motilin Receptor-Ligand Binding Assay (Using Human Recombinant HEK-293 Cells)
Motilin Receptor binding/affinity studies were performed as described by Feighner S D et al. (Science 1999, 284: 2184-2188). The assays were run under the following conditions:
Compounds of the invention were tested in concentrations comprising 0.01 μM, 0.1 μM, 1 μM and 10 μM.
IC50 values were determined by a non-linear, least square regression analysis using Data Analysis Toolbox (MDL Information Systems, USA).
In the following table 5 results obtained for selected compounds of the invention are presented.

[4] = compound 160 μg/kg s.c. + hexarelin 80 μg/kg s.c.
[5] = compound alone, 160 μg/kg body weight s.c.
[6] = compound 160 μg/kg s.c. at -10 min + hexarelin 80 μg/kg s.c. at 0 min
[7] = compound alone 160 μg/kg body weight s.c. at -10 min, solvent at 0 min

T1 sequence (Q92847 whole entry): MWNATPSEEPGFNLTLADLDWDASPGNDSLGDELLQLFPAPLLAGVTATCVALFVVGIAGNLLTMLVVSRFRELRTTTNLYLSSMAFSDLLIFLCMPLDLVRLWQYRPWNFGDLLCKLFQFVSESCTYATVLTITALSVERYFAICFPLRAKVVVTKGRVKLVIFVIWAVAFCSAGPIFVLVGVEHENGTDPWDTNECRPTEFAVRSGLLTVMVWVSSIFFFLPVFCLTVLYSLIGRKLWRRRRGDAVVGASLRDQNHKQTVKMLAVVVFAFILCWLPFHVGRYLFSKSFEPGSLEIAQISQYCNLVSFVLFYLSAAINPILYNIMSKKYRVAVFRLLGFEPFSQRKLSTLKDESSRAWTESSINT
T2 sequence (O43193 whole entry): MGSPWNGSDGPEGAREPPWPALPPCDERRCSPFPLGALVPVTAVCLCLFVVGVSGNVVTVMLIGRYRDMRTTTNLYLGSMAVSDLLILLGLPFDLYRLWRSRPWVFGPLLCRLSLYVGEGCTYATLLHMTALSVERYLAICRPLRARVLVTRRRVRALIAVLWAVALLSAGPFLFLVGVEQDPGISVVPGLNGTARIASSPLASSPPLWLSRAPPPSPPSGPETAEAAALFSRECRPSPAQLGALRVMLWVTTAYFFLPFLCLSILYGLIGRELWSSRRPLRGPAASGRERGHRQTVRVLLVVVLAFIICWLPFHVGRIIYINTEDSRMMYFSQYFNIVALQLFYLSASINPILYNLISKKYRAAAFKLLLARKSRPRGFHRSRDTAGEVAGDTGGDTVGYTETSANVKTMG

Row | SMILES | IC50 (human GHS-R 1a) | IC50 [3] | Cumulative food intake (after 2 hours) [1, 4] | Cumulative food intake (after 6 hours) [1, 4] | Cumulative food intake (after 2 hours) [1, 5] | Cumulative food intake (after 6 hours) [1, 5] | GH concentration [2, 6] | GH concentration [2, 7]
1 | COc1ccc(Cn2c(CCc3c[nH]c4ccccc34)nnc2[C@@H](Cc2c[nH]c3ccccc23)NC(=O)C(C)(C)N)cc1 [compound 12, (R)—N-(1-(5-(2-(1H-indol-3-yl)ethyl)-4-(4-methoxybenzyl)-4H-1,2,4-triazol-3-yl)-2-(1H-indol-3-yl)ethyl)-2-amino-2-methylpropanamide] | 6 nM |  | 0.13 ± 0.07 g food/100 g body weight | 0.48 ± 0.22 g food/100 g body weight | 0.034 ± 0.011 g food/100 g body weight | 0.06 ± 0.019 g food/100 g body weight | 200.0 ± 19.7 ng/mL | 4.0 ± 0.12 ng/mL
2 | COc1ccc(Cn2c(CCc3ccccc3)nnc2[C@@H](Cc2c[nH]c3ccccc23)NC(=O)C(C)(C)N)cc1 [compound 20, (R)—N-(1-(4-(4-methoxybenzyl)-5-phenethyl-4H-1,2,4-triazol-3-yl)-2-(1H-indol-3-yl)ethyl)-2-amino-2-methylpropanamide] | 14 nM |  | 0.53 ± 0.21 g food/100 g body weight | 0.63 ± 0.19 g food/100 g body weight | 0.01 g food/100 g body weight | 0.2 ± 0.19 g food/100 g body weight | 220.51 ± 15.52 ng/mL | 5.27 ± 0.59 ng/mL
3 | COc1ccc(Cn2c(CCCc3ccccc3)nnc2[C@@H](Cc2c[nH]c3ccccc23)NC(=O)C(C)(C)N)cc1 [compound 22, (R)—N-(1-(4-(4-methoxybenzyl)-5-(3-phenylpropyl)-4H-1,2,4-triazol-3-yl)-2-(1H-indol-3-yl)ethyl)-2-amino-2-methylpropanamide] | 12 nM |  | 0.67 ± 0.12 g food/100 g body weight | 0.86 ± 0.18 g food/100 g body weight | 0.01 g food/100 g body weight | 0.44 ± 0.2 g food/100 g body weight | 239.91 ± 19.75 ng/mL | 4.88 ± 0.33 ng/mL
4 | COc1ccc(Cn2c(CCc3ccccc3)nnc2[C@@H](Cc2c[nH]c3ccccc23)NC(=O)[C@H]2CCCN2)cc1 [compound 47, (R)—N—((R)-1-(4-(4-methoxybenzyl)-5-phenethyl-4H-1,2,4-triazol-3-yl)-2-(1H-indol-3-yl)ethyl)pyrrolidine-2-carboxamide] | 27 nM |  | 0.35 ± 0.201 g food/100 g body weight | 0.47 ± 0.1943 g food/100 g body weight | 0.006 ± 0.002 g food/100 g body weight | 0.02 ± 0 g food/100 g body weight | 160.857 ± 13.52 ng/mL | 5.658 ± 1.192 ng/mL

Second part, led by results:

Row | IC50 (human GHS-R 1a) | IC50 [3] | SMILES | Cumulative food intake (after 2 hours) [1, 4] | Cumulative food intake (after 6 hours) [1, 4] | Cumulative food intake (after 2 hours) [1, 5] | Cumulative food intake (after 6 hours) [1, 5] | GH concentration [2, 6] | GH concentration [2, 7]
5 | 1.1 nM | 1390 nM | COc1ccc(Cn2c(CCc3ccccc3)nnc2[C@@H](Cc2c[nH]c3ccccc23)NC(=O)c2ccccn2)c(OC)c1 [compound 64, (R)—N-(1-(4-(2,4-dimethoxybenzyl)-5-phenethyl-4H-1,2,4-triazol-3-yl)-2-(1H-indol-3-yl)ethyl)picolinamide] | 0.012 ± 0.004 g food/100 g body weight | 0.021 ± 0.007 g food/100 g body weight | 0.012 ± 0.008 g food/100 g body weight | 0.039 ± 0.011 g food/100 g body weight | 138.394 ± 14.580 ng/mL | 13.056 ± 2.169 ng/mL
6 | 19 nM |  | COc1ccc(Cn2c(CCc3c[nH]c4ccccc34)nnc2[C@@H](Cc2c[nH]c3ccccc23)NC(=O)c2cnccn2)c(OC)c1 [compound 71, (R)—N-(1-(5-(2-(1H-indol-3-yl)ethyl)-4-(2,4-dimethoxybenzyl)-4H-1,2,4-triazol-3-yl)-2-(1H-indol-3-yl)ethyl)pyrazine-2-carboxamide] | 0.117 ± 0.074 g food/100 g body weight | 0.20 ± 0.01 g food/100 g body weight | 0.522 ± 0.283 g food/100 g body weight | 0.53 ± 0.28 g food/100 g body weight | 173.611 ± 18.444 ng/mL | 15.326 ± 1.355 ng/mL
7 | 18 nM |  | COc1ccc(Cn2c(CCc3c[nH]c4ccccc34)nnc2[C@@H](Cc2c[nH]c3ccccc23)NC(=O)C2CNCCN2)cc1 (stereo partly drawn) [compound 81] | 0.024 ± 0.0101 g food/100 g body weight | 0.116 ± 0.077 g food/100 g body weight | 0.017 ± 0.004 g food/100 g body weight | 0.03 ± 0 g food/100 g body weight | 216.575 ± 19.734 ng/mL | 18.634 ± 2.933 ng/mL
8 | 28 nM |  | COc1ccc(Cn2c(CCc3c[nH]c4ccccc34)nnc2[C@@H](Cc2c[nH]c3ccccc23)NC(=O)[C@H]2CCCN2)cc1 [compound 90, (R)—N—((R)-1-(5-(2-(1H-indol-3-yl)ethyl)-4-(4-methoxybenzyl)-4H-1,2,4-triazol-3-yl)-2-(1H-indol-3-yl)ethyl)pyrrolidine-2-carboxamide] | 0.054 ± 0.041 g food/100 g body weight | 0.069 ± 0.041 g food/100 g body weight | 0.014 ± 0.001 g food/100 g body weight | 0.035 ± 0.003 g food/100 g body weight | 218.844 ± 19.723 ng/mL | 16.857 ± 2.152 ng/mL
